{"source": "patent US20160158262A1", "about": "“METHODS OF TREATING IRRITABLE BOWEL SYNDROME” (CEDARS-SINAI MEDICAL CENTER, priority 2013, published 2016)", "key": {"[1]": {"system": "methane", "details": "retrospective study; cited from earlier work"}, "[2]": {"system": "non-constipated IBS subjects", "details": "cited from earlier work"}, "[3]": {"system": "C-IBS subjects with methane", "assay": "Randomized double-blind trial in methane-positive C-IBS subjects: weekly symptom severity questionnaires (VAS 0-100)", "format": "in vivo, human", "procedure": "Consecutive C-IBS subjects (18-65 yrs of age) (Rome III criteria) were recruited after applying exclusion criteria. All subjects presented for a lactulose breath test after a 12 hour fast. Only subjects with methane level >3 ppm on at least 1 breath sample were enrolled. Subjects then completed a stool diary, questionnaire (100 point VAS scale for bloating, abdominal pain, constipation, diarrhea and straining) and 2 week run in phase. […] Questionnaires were repeated weekly during treatment and for 4 weeks following completion of treatment. On the last week of follow up, the stool diary was repeated.\nConsecutive patients (18-65 yrs of age) who fulfilled the Rome II criteria for C-IBS^2 were recruited. Patients were included if they reported <3 complete and spontaneous bowel movements (CSBMs) per week and had breath methane >3 ppm. […] Subjects were also excluded if they had taken an antibiotic or probiotic in the previous 30 days or were currently taking narcotics, proton pump inhibitors, tricyclic antidepressants, or medications known to alter intestinal motility. All subjects provided informed written consent and the study was approved by the institutional review board of all three study sites. Subjects who completed the study received a stipend. The study was registered with clinicaltrials.gov (NCT00945334).\nThe allocation was concealed. […] The pharmacy, investigators and patients were blinded.\n(§1) Following completion of therapy, subjects were asked to continue with the weekly symptom questionnaires for an additional 4 weeks. During the final week of follow up, subjects were asked to repeat the 7-day stool diary followed by the final weekly questionnaire. Finally, subjects were asked to repeat a single fasting breath sample to examine for the presence of methane.\nThe baseline study questionnaire included subject demographics as well as symptom severity information. Follow-up questionnaires included a repeat evaluation of symptom severity. The following were assessed: abdominal pain, constipation, bloating, urgency, incomplete evacuation, straining and diarrhea. Severity was rated using a visual analog scale (VAS) from 0-100 mm (with 0=no symptom and 100=severe symptoms).\nThe primary outcome measure of this study was constipation severity as assessed on a VAS score from the first week following completion of the treatment phase. […] In addition, the eradication of methane was evaluated as a determinant of improvement at 4 weeks post therapy.\nData were expressed as mean±SD.\nTo examine the effect of each group over the duration of the study, a mixed longitudinal model was used. […] The models were analyzed with a single covariate (baseline diarrhea, constipation, abdominal pain, or bloating severity score). […]"}, "[4]": {"system": "breath methane", "assay": "Fasting breath sample for methane after therapy in the same trial", "format": "in vivo, human", "procedure": "as §1\nSubjects were asked to fast for 12 hours prior to a breath sample being obtained. Breath samples were collected via a Quintron dual bag collecting system (Quintron Instrument Company, Milwaukee, Wis.). The sampled gas was analyzed using a BreathTracker SC (Quintron Instrument Company, Milwaukee, Wis.). Output was reported as methane in parts per million (ppm) after correction for alveolar sample quality using breath CO2 concentration.\nThe primary outcome measure of this study was constipation severity as assessed on a VAS score from the first week following completion of the treatment phase. Secondary outcome measures included the severity of constipation, abdominal pain, urgency, bloating and straining over the entire study period. In addition, the eradication of methane was evaluated as a determinant of improvement at 4 weeks post therapy."}, "[5]": {"details": "in vivo", "procedure": "All subjects with a diagnosis of C-IBS presented for a fasting breath test after a 12 hour fast. Only subjects with methane level of >3 ppm on a single breath sample were enrolled. Subjects then completed a baseline study questionnaire and a baseline audiogram. […] Subjects were then asked to complete a daily stool diary for two weeks with weekly questionnaires for overall symptom severity. Subjects were eligible for randomization only if they were confirmed to have <3 CSBMs per week during stool diary.\nThe randomization scheme was set in blocks of 4 and each site received batches of drug in multiples of 4 to balance each study site into blocks. The allocation was concealed. The randomization was done by the drug company with a tracking list provided to the study site pharmacy in a concealed envelope. The pharmacy, investigators and patients were blinded. During the 14 days of treatment, subjects completed weekly symptom questionnaires (2 questionnaires over 2 weeks).\nBaseline qualitative data and side effect rates were compared by Fisher's Exact Test. Quantitative baseline data was normal so were compared by t-Test. Data were expressed as mean±SD. The primary endpoint was also normally distributed and compared by t-test."}, "[6]": {"system": "non-selected population of IBS", "details": "cited from earlier work"}, "[7]": {"details": "by week 2 of treatment, 100 point VAS, mean±SD"}}}
{"compound": "CO[C@H]1/C=C/O[C@@]2(C)Oc3c(C)c(O)c4c(O)c(c5c(nc6cc(C)ccn65)c4c3C2=O)NC(=O)/C(C)=C\\C=C\\[C@H](C)[C@H](O)[C@@H](C)[C@@H](O)[C@@H](C)[C@H](OC(C)=O)[C@@H]1C", "note": "[Rifaximin, rifaximin]", "values": [{"measurement": "benefit of single antibiotic", "setting": "[1]", "result": "did not have a substantial benefit"}, {"measurement": "duration of benefits following cessation of therapy", "setting": "[2]; after 14 days of rifaximin therapy, global symptom rating, bloating, stool consistency, abdominal pain", "result": 3, "unit": "months"}, {"measurement": "efficacy versus placebo in the treatment of IBS", "setting": "[2]; multiple published randomized trials", "result": "superiority over placebo"}]}
{"compound": "neomycin", "values": [{"measurement": "bloating severity (VAS)", "setting": "[3]; [7]", "result": "65.1±25.9"}, {"measurement": "constipation VAS score", "setting": "[3]; [7]", "result": "57.9±25.0"}, {"measurement": "difference in constipation severity between subjects with and without methane ≦3 ppm", "setting": "[3]; final visit", "result": "no significant difference"}, {"measurement": "VAS score for constipation (primary endpoint)", "setting": "[3]; one week after completion of 14 days of therapy, ITT, mean±SD", "result": "61.2±24.1"}, {"measurement": "reduction in methane from baseline (median drop)", "setting": "[4]; fasting breath sample, final visit vs baseline", "result": 7.5, "unit": "ppm"}, {"measurement": "subjects with methane levels ≦3 ppm following treatment", "setting": "[4]; final visit, of 15 subjects (rifaximin plus neomycin), out of 16 subjects (neomycin)", "result": 11, "unit": "subjects"}, {"measurement": "Side effect: Abdominal pain", "setting": "[5]", "result": "6 (38) n(%)"}, {"measurement": "Side effect: Bloating and distension", "setting": "[5]", "result": "9 (56) n(%)"}, {"measurement": "Side effect: Constipation", "setting": "[5]", "result": "2 (13) n(%)"}, {"measurement": "Side effect: Diarrhea", "setting": "[5]", "result": "2 (13) n(%)"}, {"measurement": "Side effect: Nausea", "setting": "[5]", "result": "10 (63) n(%)"}, {"measurement": "Side effect: Urgency", "setting": "[5]", "result": "2 (13) n(%)"}, {"measurement": "benefit of single antibiotic", "setting": "[1]", "result": "did not have a substantial benefit"}, {"measurement": "improvement of IBS compared to placebo", "setting": "[6]", "result": "successful in improving IBS"}, {"measurement": "rate of normalizing the breath test", "setting": "[6]", "result": "poor rate"}]}
